This test deals with PC12 cells. The test can be described thus: KCN-induced necrosis of PC12 cells, LDH release. Type of test: cell-based, rat. As to conditions: for inhibition at 1 µM / inhibition at 0.01 µM / inhibition at 0.1 µM / inhibition at 0.0001 µM / inhibition at 0.001 µM: Rattus norvegicus, PC-12, 5 h, KCN, PC12, LDH release (Table 5); for inhibition at 1 µM: read-out: % protection at 1 μM; for inhibition at 0.01 µM / % protection at indicated concentration 10 nM: 10 nM; for inhibition at 0.01 µM: read-out: % protection At 10 nM; for inhibition at 0.1 µM: read-out: % protection at 0.1 μM; for % protection at indicated concentration 0.1 nM / % protection at indicated concentration 1 nM / % protection at indicated concentration 10 nM / % protection at indicated concentration 100 nM / % protection at indicated concentration 1 μM: KCN-induced necrosis (Table 2); for % protection at indicated concentration 0.1 nM / inhibition at 0.0001 µM: 0.1 nM; for inhibition at 0.0001 µM: read-out: % protection at 0.1 nM; for % protection at indicated concentration 1 nM / inhibition at 0.001 µM: 1 nM; for inhibition at 0.001 µM: read-out: % protection at 1 nM. The method, then:
The rat pheochromocytoma PC12 cell line was propagated in DMEM medium (Beit Haemek, Israel), supplemented with 5% heat-inactivated calf serum, 10% heat-inactivated horse serum, 2 mM L-glutamine, 100 U/ml penicillin and 100 μg/ml streptomycin. PC12 cells in logarithmic phase were seeded at a concentration of 1.2×10^5/well in 96-well plates and incubated overnight.
Thereafter, the cells were washed twice and maintained in RPMI-1640 (U-937cells) and DMEM (PC-12 cells) glucose-free medium, supplemented with 2 mM pyruvate and 10% dialyzed FCS for one hour. Then cells were treated with or without KCN (Merck, Germany) at the indicated concentrations for 7 hours (U-937 cells), or for 5 hours (PC12 cells).
Elastase inhibitors II (MeOSuc-AAPA-CMK) and elastase inhibitor III (MeOSuc-AAPV-CMK) were purchased from Calbiochem-Novabiochem, USA. Compound Gly-Phe diazomethylketone was purchased from MP Biomedicals, USA. All the compounds disclosed in Table 1 hereinabove were purchased from ChemDiv, San Diego, CA. The compounds were dissolved in DMSO and were administered 30 min before addition of the cell death inducer. The final concentration of DMSO, added to all samples, was 0.1%, which had no effect by itself siRNA and cell transfection
The amount of LDH released from lysed cells is a sensitive measure of cell death. Necrotic cell death was measured in 96-well plates using Promega CytoTox 96 LDH assay kit. LDH content from the cells lysed in 0.1% Triton X-100 for 10 min was used as an index of total LDH. The LDH released in culture medium was used as an index of necrotic cell death and the percentage from total LDH was calculated. The protection by the inhibitor was calculated based on comparing percentage of LDH release in the presence and in the absence of the inhibitor. The inhibitors were also added to totals, blanks and controls. Absorbance at 490 nm was measured by ELISA reader (BioTec).
These compounds were tested for their ability to inhibit necrosis induced by KCN in PC12 cells. The necrotic mode of cell death in this system was validated as previously described. PC12 cells were challenged with KCN as described above. The protective results of the compounds against KCN-induced necrosis assessed using LDH release method are shown below in Table 5. The IC50 values of these inhibitors is in the range of tens to single nanomolar.
For orientation: LDH in the medium is a marker of cell lysis.

Where a SMILES comes first, the peptide text is derived from it. The star is where a group is joined. CHN2 = [N-]=[N+]=C*

For the compound `COc1cc(C(=O)n2nc(C)cc2C)cc(OC)c1OC` [3346-3249, (3,5-dimethyl-1H-pyrazol-1-yl)(3,4,5-trimethoxyphenyl)methanone], the inhibition at 1 µM turned out to be 52%.
Consider `O=C(O)c1cccc(S(=O)(=O)N2CCCC2)c1` [3506-0172, 3-(pyrrolidin-1-ylsulfonyl)benzoic acid], for which the inhibition at 0.01 µM came to 18%, the inhibition at 0.1 µM came to 19% and the inhibition at 1 µM was 52%.
For `COc1cc(OC)cc(-c2nc3ccc(Br)cc3c(=O)o2)c1` [3952-1000, 6-bromo-2-(3,5-dimethoxyphenyl)-4H-benzo[d][1,3]oxazin-4-one], the “% protection at indicated concentration 0.1 nM” value was 35%, the “% protection at indicated concentration 1 nM” value is on record as 33%, the “% protection at indicated concentration 10 nM” value is 38% and the “% protection at indicated concentration 100 nM” value was found to be 35%. The “% protection at indicated concentration 1 μM” value was 77%, the inhibition at 0.0001 µM was determined as 35%, the inhibition at 0.001 µM was 33% and the inhibition at 0.01 µM worked out at 38%. Moreover, the inhibition at 0.1 µM was 35% and the inhibition at 1 µM stood at 77%.
Consider `CN(C)c1ccc(Nc2nc(-c3ccc(Cl)cc3)cs2)cc1` [4112-3656, N1-(4-(4-chlorophenyl)thiazol-2-yl)-N4,N4-dimethylbenzene-1,4-diamine], for which the “% protection at indicated concentration 0.1 nM” value is listed as 30%, the “% protection at indicated concentration 1 nM” value was determined as 25%, the “% protection at indicated concentration 10 nM” value came out at 55% and the “% protection at indicated concentration 100 nM” value was determined as 73%. Moreover, the “% protection at indicated concentration 1 μM” value was determined as 77%, the inhibition at 0.0001 µM is 30%, the inhibition at 0.001 µM stood at 25% and the inhibition at 0.01 µM amounted to 55%. The inhibition at 0.1 µM turned out to be 73% and the inhibition at 1 µM was 77%.
For `CC(=O)Oc1ccc2nc(-c3cccc(Br)c3)oc(=O)c2c1` [4334-1600, 2-(3-bromophenyl)-4-oxo-4H-benzo[d][1,3]oxazin-6-yl acetate], the “% protection at indicated concentration 0.1 nM” value was 28%, the “% protection at indicated concentration 1 nM” value was 30%, the “% protection at indicated concentration 10 nM” value is listed as 28% and the “% protection at indicated concentration 100 nM” value turned out to be 70%. Moreover, the “% protection at indicated concentration 1 μM” value came to 74%, the inhibition at 0.0001 µM is 28%, the inhibition at 0.001 µM was determined as 30% and the inhibition at 0.01 µM is 28%. Also, the inhibition at 0.1 µM worked out at 71% and the inhibition at 1 µM was determined as 74%.
On to `Cn1c(-c2c(C(C)(C)C)oc3cc(OC(=O)C(C)(C)C)ccc3c2=O)nc2ccccc21` [4356-0595, 2-(tert-butyl)-3-(1-methyl-1H-benzo[d]imidazol-2-yl)-4-oxo-4H-chromen-7-yl pivalate], for which the inhibition at 0.0001 µM was found to be 4%, the inhibition at 0.001 µM is 21%, the inhibition at 0.01 µM was found to be 36% and the inhibition at 0.1 µM amounted to 57%. Besides, the inhibition at 1 µM amounted to 69%.
Take `O=c1oc(-c2ccco2)nc2sc3c(c12)CCCC3` [4789-3852, 2-(furan-2-yl)-5,6,7,8-tetrahydro-4H-benzo[4,5]thieno[2,3-d][1,3]oxazin-4-one]: the inhibition at 0.0001 µM turned out to be 18%, the inhibition at 0.001 µM came out at 25%, the inhibition at 0.01 µM stood at 55% and the inhibition at 0.1 µM is 61%. The inhibition at 1 µM worked out at 81%.
`c1ccc(-c2noc(CC3CCCCC3)n2)nc1` [4953-1443, 5-(cyclohexylmethyl)-3-(pyridin-2-yl)-1,2,4-oxadiazole]: the inhibition at 1 µM was 51%.
For `CCOC(=O)CN1C(=O)c2ccccc2S1(=O)=O` [5149-0030, Ethyl-2,3-dihydro-3-oxo-1,2-benzisothiazole-2-acetate-1,1-dioxide], the “% protection at indicated concentration 0.1 nM” value is given as 19%, the “% protection at indicated concentration 1 nM” value is 25%, the “% protection at indicated concentration 10 nM” value is 35% and the “% protection at indicated concentration 100 nM” value worked out at 68%. Besides, the “% protection at indicated concentration 1 μM” value worked out at 80%, the inhibition at 0.0001 µM was 19%, the inhibition at 0.001 µM stood at 25% and the inhibition at 0.01 µM came to 35%. Further, the inhibition at 0.1 µM was 68% and the inhibition at 1 µM came to 80%.
Regarding `O=C(O)Cn1nnc(-c2ccncc2)n1` [8018-2960, 2-(5-(pyridin-4-yl)-2H-tetrazol-2-yl)acetic acid], the inhibition at 0.0001 µM was determined as 38%, the inhibition at 0.001 µM was determined as 25%, the inhibition at 0.01 µM amounted to 54% and the inhibition at 0.1 µM is 80%. The inhibition at 1 µM stood at 84%.
Turning to `O=C(NCCNC(=O)c1nc(Cn2cc(Cl)cn2)no1)c1cccc(F)c1` [8019-5381, 3-((4-chloro-1H-pyrazol-1-yl)methyl)-N-(2-(3-fluorobenzamido)ethyl)-1,2,4-oxadiazole-5-carboxamide], the inhibition at 0.01 µM worked out at 32%, the inhibition at 0.1 µM was found to be 49% and the inhibition at 1 µM was 56%.
Turning to `CC1Cc2ccccc2N1S(=O)(=O)c1ccc(C(=O)O)cc1` (centres unmarked) [D216-0746, 4-((2-methylindolin-1-yl)sulfonyl)benzoic acid], the inhibition at 0.0001 µM amounted to 29%, the inhibition at 0.001 µM was found to be 37%, the inhibition at 0.01 µM was 47% and the inhibition at 0.1 µM came to 84%. In addition, the inhibition at 1 µM came out at 90%.
Regarding `Cn1c(=O)[nH]c(=O)c2[nH]c(N3CCCCC3)nc21` [D226-0031, 3-methyl-8-(piperidin-1-yl)-1H-purine-2,6(3H,7H)-dione], the inhibition at 0.0001 µM was found to be 29%, the inhibition at 0.001 µM turned out to be 26%, the inhibition at 0.01 µM is 43% and the inhibition at 0.1 µM was found to be 37%. In addition, the inhibition at 1 µM turned out to be 65%.
With `CCOC(=O)C1=C(C)N(CC(=O)NCc2ccc(C)cc2)c2ncnn2C1c1ccccc1` (centres unmarked) [D529-0049, ethyl 5-methyl-4-(2-((4-methylbenzyl)amino)-2-oxoethyl)-7-phenyl-4,7-dihydro-[1,2,4]triazolo[1,5-a]pyrimidine-6-carboxylate], the inhibition at 0.01 µM came out at 33%, the inhibition at 0.1 µM came out at 42% and the inhibition at 1 µM is 51%.
In the case of `CCn1c2ccccc2c2nnc(NCc3ccccn3)nc21` [E205-0066, 5-ethyl-N-(pyridin-2-ylmethyl)-5H-[1,2,4]triazino[5,6-b]indol-3-amine], the inhibition at 0.01 µM was found to be 18%, the inhibition at 0.1 µM was found to be 32% and the inhibition at 1 µM was 58%.
Regarding `Cc1[nH]c(=O)[nH]c(=O)c1S(=O)(=O)N1CCCCC1C` (centres unmarked) [E214-0380, 6-methyl-5-((2-methylpiperidin-1-yl)sulfonyl)pyrimidine-2,4(1H,3H)-dione], the inhibition at 0.0001 µM worked out at 18%, the inhibition at 0.001 µM amounted to 21%, the inhibition at 0.01 µM worked out at 39% and the inhibition at 0.1 µM turned out to be 51%. Further, the inhibition at 1 µM came out at 83%.
With `CCc1ccccc1S(=O)(=O)Nc1ccc(N2CCN(CC)CC2)cc1C(=O)O` [F684-0507, 2-(2-ethylphenylsulfonamido)-5-(4-ethylpiperazin-1-yl)benzoic acid], the inhibition at 1 µM stood at 56%.
Regarding `Nc1ncc(S(=O)(=O)Nc2ccc(F)cc2F)cn1` [G830-0845, 2-amino-N-(2,4-difluorophenyl)pyrimidine-5-sulfonamide], the inhibition at 1 µM stood at 54%.
Regarding `[N-]=[N+]=CC(=O)[C@H](Cc1ccccc1)NC(=O)CN` [Gly-Phe-DMK, Gly-Phe-diazomethylketone, reference compound] (H-Gly-Phe-CHN2), where the note is “PC12, KCN 5 hours, FIGS. 6, 7A-B”, the “KCN-induced necrotic cell death assessed by LDH release” value was “inhibited cell necrosis”.
Consider `CC(=O)Nc1nc(SCCC(=O)O)n[nH]1` [L150-1122, 3-((5-acetamido-1H-1,2,4-triazol-3-yl)thio)propanoic acid], for which the inhibition at 0.0001 µM is 22%, the inhibition at 0.001 µM came to 25%, the inhibition at 0.01 µM was determined as 30% and the inhibition at 0.1 µM was found to be 44%. The inhibition at 1 µM was 68%.

The record behind these values is patent publication US11945787B2, “Substituted imidazoles for preventing and/or treating cell or tissue necrosis” (Ela Pharma Ltd, priority 2015, dated 2024).
